# Measurements taken from US8192962B2, “Processes for detecting toxic substances” (Daikin Industries, Ltd., priority 2001, dated 2012).
# Several values for one entry are separate records, joined by “and”; a condition that tells them apart may be missing. Identical values can stand only once.
# Tested on: DNA repair protein genes
# Test: DNA chip mRNA expression in yeast, DNA repair protein genes (Table 3)
# Assay type: cell-based, Saccharomyces cerevisiae S288C
# Settings: incubated two hours, concentrations as in the 1st table
# Procedure, shortened: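 First, S288C yeast grown in YPD at 25° C. are dosed in log phase with one toxicant (growth-inhibiting, not lethal) for 2 h. Next, total RNA is extracted and poly(A) mRNA isolated and reverse-transcribed with Cy3/Cy5-dUTP. Finally, whole-genome chip fluorescence is read relative to unexposed cells.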
compound,measurement,setting,value
"Oc1cc(Cl)c(Cl)cc1Cl [(6), 2,4,5-trichlorophenol]",The level of expressed mRNA in the presence of chemical substance/The level of expressed mRNA in the absence of chemical substance,yeast gene YAL015C,0.7
same,The level of expressed mRNA in the presence of chemical substance/The level of expressed mRNA in the absence of chemical substance,yeast gene YBL019W,1.0
same,The level of expressed mRNA in the presence of chemical substance/The level of expressed mRNA in the absence of chemical substance,yeast gene YBR073W,0.7
same,The level of expressed mRNA in the presence of chemical substance/The level of expressed mRNA in the absence of chemical substance,yeast gene YCR014C,1.1
same,The level of expressed mRNA in the presence of chemical substance/The level of expressed mRNA in the absence of chemical substance,yeast gene YDL017W,1.1
same,The level of expressed mRNA in the presence of chemical substance/The level of expressed mRNA in the absence of chemical substance,yeast gene YDL059C,1.2
same,The level of expressed mRNA in the presence of chemical substance/The level of expressed mRNA in the absence of chemical substance,yeast gene YDL200C,0.6
same,The level of expressed mRNA in the presence of chemical substance/The level of expressed mRNA in the absence of chemical substance,yeast gene YDR054C,1.9
same,The level of expressed mRNA in the presence of chemical substance/The level of expressed mRNA in the absence of chemical substance,yeast gene YDR369C,0.6
same,The level of expressed mRNA in the presence of chemical substance/The level of expressed mRNA in the absence of chemical substance,yeast gene YEL019C,1.5
same,The level of expressed mRNA in the presence of chemical substance/The level of expressed mRNA in the absence of chemical substance,yeast gene YEL037C,0.6
same,The level of expressed mRNA in the presence of chemical substance/The level of expressed mRNA in the absence of chemical substance,yeast gene YER162C,0.7
same,The level of expressed mRNA in the presence of chemical substance/The level of expressed mRNA in the absence of chemical substance,yeast gene YFL014W,9.3
same,The level of expressed mRNA in the presence of chemical substance/The level of expressed mRNA in the absence of chemical substance,yeast gene YGL058W,1.0 and 1.5
same,The level of expressed mRNA in the presence of chemical substance/The level of expressed mRNA in the absence of chemical substance,yeast gene YGL091C,1.6
same,The level of expressed mRNA in the presence of chemical substance/The level of expressed mRNA in the absence of chemical substance,yeast gene YGL127C,0.6
same,The level of expressed mRNA in the presence of chemical substance/The level of expressed mRNA in the absence of chemical substance,yeast gene YGL163C,0.9
same,The level of expressed mRNA in the presence of chemical substance/The level of expressed mRNA in the absence of chemical substance,yeast gene YGL249W,2.5
same,The level of expressed mRNA in the presence of chemical substance/The level of expressed mRNA in the absence of chemical substance,yeast gene YGR180C,0.6 and 1.0
same,The level of expressed mRNA in the presence of chemical substance/The level of expressed mRNA in the absence of chemical substance,yeast gene YGR231C,1.9
same,The level of expressed mRNA in the presence of chemical substance/The level of expressed mRNA in the absence of chemical substance,yeast gene YGR258C,2.2
same,The level of expressed mRNA in the presence of chemical substance/The level of expressed mRNA in the absence of chemical substance,yeast gene YHR164C,1.4
same,The level of expressed mRNA in the presence of chemical substance/The level of expressed mRNA in the absence of chemical substance,yeast gene YIL036W,1.8
same,The level of expressed mRNA in the presence of chemical substance/The level of expressed mRNA in the absence of chemical substance,yeast gene YIL072W,1.2
same,The level of expressed mRNA in the presence of chemical substance/The level of expressed mRNA in the absence of chemical substance,yeast gene YIL143C,1.4
same,The level of expressed mRNA in the presence of chemical substance/The level of expressed mRNA in the absence of chemical substance,yeast gene YIL153W,0.9
same,The level of expressed mRNA in the presence of chemical substance/The level of expressed mRNA in the absence of chemical substance,yeast gene YIR002C,2.2
same,The level of expressed mRNA in the presence of chemical substance/The level of expressed mRNA in the absence of chemical substance,yeast gene YJL026W,1.0
same,The level of expressed mRNA in the presence of chemical substance/The level of expressed mRNA in the absence of chemical substance,yeast gene YJR046W,2.0
same,The level of expressed mRNA in the presence of chemical substance/The level of expressed mRNA in the absence of chemical substance,yeast gene YJR052W,1.4
same,The level of expressed mRNA in the presence of chemical substance/The level of expressed mRNA in the absence of chemical substance,yeast gene YKL145W,2.1
same,The level of expressed mRNA in the presence of chemical substance/The level of expressed mRNA in the absence of chemical substance,yeast gene YLR103C,1.1
same,The level of expressed mRNA in the presence of chemical substance/The level of expressed mRNA in the absence of chemical substance,yeast gene YLR233C,0.8
same,The level of expressed mRNA in the presence of chemical substance/The level of expressed mRNA in the absence of chemical substance,yeast gene YLR288C,1.2
same,The level of expressed mRNA in the presence of chemical substance/The level of expressed mRNA in the absence of chemical substance,yeast gene YML032C,0.9
same,The level of expressed mRNA in the presence of chemical substance/The level of expressed mRNA in the absence of chemical substance,yeast gene YMR035W,1.5
same,The level of expressed mRNA in the presence of chemical substance/The level of expressed mRNA in the absence of chemical substance,yeast gene YMR072W,1.6 and 2.4
same,The level of expressed mRNA in the presence of chemical substance/The level of expressed mRNA in the absence of chemical substance,yeast gene YMR096W,2.2
same,The level of expressed mRNA in the presence of chemical substance/The level of expressed mRNA in the absence of chemical substance,yeast gene YMR284W,0.8 and 1.2
same,The level of expressed mRNA in the presence of chemical substance/The level of expressed mRNA in the absence of chemical substance,yeast gene YNL213C,1.7
same,The level of expressed mRNA in the presence of chemical substance/The level of expressed mRNA in the absence of chemical substance,yeast gene YNL250W,0.8
same,The level of expressed mRNA in the presence of chemical substance/The level of expressed mRNA in the absence of chemical substance,yeast gene YNL261W,1.3
same,The level of expressed mRNA in the presence of chemical substance/The level of expressed mRNA in the absence of chemical substance,yeast gene YNL312W,1.7
same,The level of expressed mRNA in the presence of chemical substance/The level of expressed mRNA in the absence of chemical substance,yeast gene YOL043C,0.8
same,The level of expressed mRNA in the presence of chemical substance/The level of expressed mRNA in the absence of chemical substance,yeast gene YOR005C,1.3
same,The level of expressed mRNA in the presence of chemical substance/The level of expressed mRNA in the absence of chemical substance,yeast gene YOR386W,3.3
same,The level of expressed mRNA in the presence of chemical substance/The level of expressed mRNA in the absence of chemical substance,yeast gene YPL022W,5.2
same,The level of expressed mRNA in the presence of chemical substance/The level of expressed mRNA in the absence of chemical substance,yeast gene YPL164C,1.7
same,The level of expressed mRNA in the presence of chemical substance/The level of expressed mRNA in the absence of chemical substance,yeast gene YPL194W,1.1
same,The level of expressed mRNA in the presence of chemical substance/The level of expressed mRNA in the absence of chemical substance,yeast gene YPR025C,0.9
